Drawing on patent US11078170B2 (Assembly Biosciences, Inc., priority 2017, dated 2021), this text covers EC50 for 30 compounds.

In the assay the test system is HBV viral production from HepAD38 cells. The assay can be described thus: Activity of test compounds on viral production from HepAD38 cells (viral load by qPCR of HBV core sequence in supernatant). It is filed as cell-based. Conditions: Hepatitis B virus, 120 h, 5 days incubation, HBV DNA in supernatant by qPCR, top concentration 10 μM, read-out: Viral Load EC50 Activity range. The method, boiled down: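 EC50 and CC50 come from four-parameter fits of supernatant viral load and CellTiter-Glo viability, respectively. Viral load was measured by core-region TaqMan qPCR against HBV DNA standards and compared with DMSO controls. Tet-free HepAD38 cells (50,000/well, 2% FBS) were exposed to compound, highest 10 μM, for 5 days at 37° C.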
(In general: In qPCR the cycle at which signal appears reflects the starting amount.)
As for `COc1ccc(CN2C(C(=O)Nc3ccc(F)c(Cl)c3)CC(c3nccs3)NS2(=O)=O)cc1` (stereo not drawn) [HBV-CSU-108, Cis-N-(3-chloro-4-fluorophenyl)-2-(4-methoxybenzyl)-5-(thiazol-2-yl)-1,2,6-thiadiazinane-3-carboxamide 1,1-dioxide], the EC50 was above 5000 nM. For `CSCCN1[C@@H](C(=O)Nc2ccc(F)c(Cl)c2)C[C@@H](c2nccs2)NS1(=O)=O` [HBV-CSU-109-ISO-I, Cis-N-(3-Chloro-4-fluorophenyl)-2-(2-(methylthio)ethyl)-5-(thiazol-2-yl)-1,2,6-thiadiazinane-3-carboxamide 1,1-dioxide], the EC50 was above 5000 nM. Regarding `CSCCN1[C@H](C(=O)Nc2ccc(F)c(Cl)c2)C[C@H](c2nccs2)NS1(=O)=O` [HBV-CSU-109-ISO-II, Cis-N-(3-Chloro-4-fluorophenyl)-2-(2-(methylthio)ethyl)-5-(thiazol-2-yl)-1,2,6-thiadiazinane-3-carboxamide 1,1-dioxide], the EC50 is below 1000 nM. `O=C(O)CN1C(C(=O)Nc2ccc(F)c(Cl)c2)CC(c2nccs2)NS1(=O)=O` (stereo not drawn) [HBV-CSU-110, Cis-2-(3-((3-Chloro-4-fluorophenyl)carbamoyl)-1,1-dioxido-5-(thiazol-2-yl)-1,2,6-thiadiazinan-2-yl)acetic acid]: the EC50 was above 5000 nM. Consider `CN1C(C(=O)Nc2ccc(F)c(Cl)c2)CC(c2ccc(F)cc2)NS1(=O)=O` (stereo not drawn) [HBV-CSU-112 (Cis), Cis-N-(3-Chloro-4-fluorophenyl)-5-(4-fluorophenyl)-2-methyl-1,2,6-thiadiazinane-3-carboxamide 1,1-dioxide], for which the EC50 is below 1000 nM. `CN1[C@H](C(=O)Nc2ccc(F)c(Cl)c2)C[C@H](c2ccc(F)cc2)NS1(=O)=O` [HBV-CSU-112-ISO-I, Cis-N-(3-Chloro-4-fluorophenyl)-5-(4-fluorophenyl)-2-methyl-1,2,6-thiadiazinane-3-carboxamide 1,1-dioxide]: the EC50 was below 1000 nM. As to `CN1[C@@H](C(=O)Nc2ccc(F)c(Cl)c2)C[C@@H](c2ccc(F)cc2)NS1(=O)=O` [HBV-CSU-112-ISO-II, Cis-N-(3-Chloro-4-fluorophenyl)-5-(4-fluorophenyl)-2-methyl-1,2,6-thiadiazinane-3-carboxamide 1,1-dioxide], the EC50 was above 5000 nM. As for `CN1[C@H](C(=O)Nc2ccc(F)c(Cl)c2)C[C@H](c2ccccc2)NS1(=O)=O` [HBV-CSU-113-ISO-I, Cis-N-(3-chloro-4-fluorophenyl)-2-methyl-5-phenyl-1,2,6-thiadiazinane-3-carboxamide 1,1-dioxide], the EC50 was below 1000 nM. In the case of `CN1[C@@H](C(=O)Nc2ccc(F)c(Cl)c2)C[C@@H](c2ccccc2)NS1(=O)=O` [HBV-CSU-113-ISO-II, Cis-N-(3-chloro-4-fluorophenyl)-2-methyl-5-phenyl-1,2,6-thiadiazinane-3-carboxamide 1,1-dioxide], the EC50 was above 5000 nM. For the compound `CN1C(C(=O)Nc2ccc(F)c(Cl)c2)CC(c2ccc(Br)s2)NS1(=O)=O` (stereo not drawn) [HBV-CSU-114, 5-(5-Bromothiophen-2-yl)-N-(3-chloro-4-fluorophenyl)-2-methyl-1,2,6-thiadiazinane-3-carboxamide 1,1-dioxide], the EC50 was below 1000 nM. For the compound `CN1[C@H](C(=O)Nc2ccc(F)c(Cl)c2)C[C@H](c2ccc(Br)s2)NS1(=O)=O` [HBV-CSU-114-ISO-I, (3S,5R)-5-(5-Bromothiophen-2-yl)-N-(3-chloro-4-fluorophenyl)-2-methyl-1,2,6-thiadiazinane-3-carboxamide 1,1-dioxide], the EC50 is below 1000 nM. Regarding `CN1[C@@H](C(=O)Nc2ccc(F)c(Cl)c2)C[C@@H](c2ccc(Br)s2)NS1(=O)=O` [HBV-CSU-114-ISO-II, 5-(5-Bromothiophen-2-yl)-N-(3-chloro-4-fluorophenyl)-2-methyl-1,2,6-thiadiazinane-3-carboxamide 1,1-dioxide], the EC50 was above 5000 nM. Take `CN1[C@@H](C(=O)Nc2ccc(F)c(Cl)c2)C[C@H](c2ccc(Br)s2)NS1(=O)=O` [HBV-CSU-114-Trans-ISO-I, (3R,5R)-5-(5-bromothiophen-2-yl)-N-(3-chloro-4-fluorophenyl)-2-methyl-1,2,6-thiadiazinane-3-carboxamide 1,1-dioxide]: the EC50 was 1000 to 5000 nM. Take `CN1[C@H](C(=O)Nc2ccc(F)c(Cl)c2)C[C@@H](c2ccc(Br)s2)NS1(=O)=O` [HBV-CSU-114-Trans-ISO-II, (3S,5S)-5-(5-bromothiophen-2-yl)-N-(3-chloro-4-fluorophenyl)-2-methyl-1,2,6-thiadiazinane-3-carboxamide 1,1-dioxide]: the EC50 lay in the range of 1000 to 5000 nM. As for `Cc1ccc([C@H]2C[C@@H](C(=O)Nc3ccc(F)c(Cl)c3)N(C)S(=O)(=O)N2)s1` [HBV-CSU-115-ISO-I, Cis-N-(3-chloro-4-fluorophenyl)-2-methyl-5-(5-methylthiophen-2-yl)-1,2,6-thiadiazinane-3-carboxamide 1,1-dioxide], the EC50 is below 1000 nM. Next, `Cc1ccc([C@@H]2C[C@H](C(=O)Nc3ccc(F)c(Cl)c3)N(C)S(=O)(=O)N2)s1` [HBV-CSU-115-ISO-II, Cis-N-(3-chloro-4-fluorophenyl)-2-methyl-5-(5-methylthiophen-2-yl)-1,2,6-thiadiazinane-3-carboxamide 1,1-dioxide]: above 5000 nM. Regarding `CN1[C@H](C(=O)Nc2ccc(F)c(Cl)c2)C[C@H](c2ccc(-c3ccccc3)s2)NS1(=O)=O` [HBV-CSU-116-ISO-I, Cis-N-(3-chloro-4-fluorophenyl)-2-methyl-5-(5-phenylthiophen-2-yl)-1,2,6-thiadiazinane-3-carboxamide 1,1-dioxide], the EC50 is below 1000 nM.

Consider `CN1C(C(=O)Nc2ccc(F)c(Cl)c2)CC(c2ccc(Cc3ccccc3)s2)NS1(=O)=O` (stereo not drawn) [HBV-CSU-117, Cis-(5-benzylthiophen-2-yl)-N-(3-chloro-4-fluorophenyl)-2-methyl-1,2,6-thiadiazinane-3-carboxamide 1,1-dioxide], for which the EC50 was below 1000 nM. Next, `CN1[C@H](C(=O)Nc2ccc(F)c(Cl)c2)C[C@H](c2ccc(Cc3ccccc3)s2)NS1(=O)=O` [HBV-CSU-117-ISO-I, Cis-(5-benzylthiophen-2-yl)-N-(3-chloro-4-fluorophenyl)-2-methyl-1,2,6-thiadiazinane-3-carboxamide 1,1-dioxide]: below 1000 nM; `CN1[C@@H](C(=O)Nc2ccc(F)c(Cl)c2)C[C@@H](c2ccc(Cc3ccccc3)s2)NS1(=O)=O` [HBV-CSU-117-ISO-II, Cis-(5-benzylthiophen-2-yl)-N-(3-chloro-4-fluorophenyl)-2-methyl-1,2,6-thiadiazinane-3-carboxamide 1,1-dioxide]: 1000 to 5000 nM. Then `CN1[C@H](C(=O)Nc2ccc(F)c(Cl)c2)C[C@H](c2ncc(Br)s2)NS1(=O)=O` [HBV-CSU-122-ISO-I, (3S,5R)-5-(5-bromothiazol-2-yl)-N-(3-chloro-4-fluorophenyl)-2-methyl-1,2,6-thiadiazinane-3-carboxamide 1,1-dioxide], with below 1000 nM; and `CN1[C@@H](C(=O)Nc2ccc(F)c(Cl)c2)C[C@@H](c2ncc(Br)s2)NS1(=O)=O` [HBV-CSU-122-ISO-II, Cis-5-(5-bromothiazol-2-yl)-N-(3-chloro-4-fluorophenyl)-2-methyl-1,2,6-thiadiazinane-3-carboxamide 1,1-dioxide], with 1000 to 5000 nM; and `CN1[C@@H](C(=O)Nc2ccc(F)c(Cl)c2)C[C@H](c2ncc(Br)s2)NS1(=O)=O` [HBV-CSU-122-Trans-ISO-I, (3R,5R)-5-(5-bromothiazol-2-yl)-N-(3-chloro-4-fluorophenyl)-2-methyl-1,2,6-thiadiazinane-3-carboxamide 1,1-dioxide], with 1000 to 5000 nM. For the compound `CN1[C@H](C(=O)Nc2ccc(F)c(Cl)c2)C[C@@H](c2ncc(Br)s2)NS1(=O)=O` [HBV-CSU-122-Trans-ISO-II, (3S,5S)-5-(5-bromothiazol-2-yl)-N-(3-chloro-4-fluorophenyl)-2-methyl-1,2,6-thiadiazinane-3-carboxamide 1,1-dioxide], the EC50 lay in the range of 1000 to 5000 nM. Turning to `CCOCCN1[C@@H](C(=O)Nc2ccc(F)c(Cl)c2)C[C@@H](c2nccs2)NS1(=O)=O` [HBV-CSU-142-ISO-I, Cis-N-(3-Chloro-4-fluorophenyl)-2-(2-ethoxyethyl)-5-(thiazol-2-yl)-1,2,6-thiadiazinane-3-carboxamide 1,1-dioxide], the EC50 lay within 1000 to 5000 nM. On to `CC(C)OCCN1C(C(=O)Nc2ccc(F)c(Cl)c2)CC(c2nccs2)NS1(=O)=O` (stereo not drawn) [HBV-CSU-143, Cis-N-(3-Chloro-4-fluorophenyl)-2-(2-isopropoxyethyl)-5-(thiazol-2-yl)-1,2,6-thiadiazinane-3-carboxamide 1,1-dioxide], for which the EC50 was below 1000 nM. On to `CN1C(C(=O)Nc2ccc(F)c(Cl)c2)CC(c2cc(Br)cs2)NS1(=O)=O` (stereo not drawn) [HBV-CSU-146, 5-(4-Bromothiophen-2-yl)-N-(3-chloro-4-fluorophenyl)-2-methyl-1,2,6-thiadiazinane-3-carboxamide 1,1-dioxide], for which the EC50 is below 1000 nM. With `CN1[C@H](C(=O)Nc2ccc(F)c(Cl)c2)C[C@H](c2cc(Br)cs2)NS1(=O)=O` [HBV-CSU-146-ISO-I, 5-(4-Bromothiophen-2-yl)-N-(3-chloro-4-fluorophenyl)-2-methyl-1,2,6-thiadiazinane-3-carboxamide 1,1-dioxide], the EC50 is below 1000 nM. As to `CN1[C@@H](C(=O)Nc2ccc(F)c(Cl)c2)C[C@@H](c2cc(Br)cs2)NS1(=O)=O` [HBV-CSU-146-ISO-II, 5-(4-Bromothiophen-2-yl)-N-(3-chloro-4-fluorophenyl)-2-methyl-1,2,6-thiadiazinane-3-carboxamide 1,1-dioxide], the EC50 was above 5000 nM. For `Cc1csc([C@H]2C[C@@H](C(=O)Nc3ccc(F)c(Cl)c3)N(C)S(=O)(=O)N2)c1` [HBV-CSU-147-ISO-I, Cis-N-(3-chloro-4-fluorophenyl)-2-methyl-5-(4-methylthiophen-2-yl)-1,2,6-thiadiazinane-3-carboxamide 1,1-dioxide], the EC50 was below 1000 nM.

In general, EC50 refers to the concentration needed to bring the measured effect to its halfway point.
